The values below come from paper PMC10124032, “Toosendanin targeting eEF2 impedes Topoisomerase I & II protein translation to suppress esophageal squamous cell carcinoma growth” (Journal of Experimental & Clinical Cancer Research : CR, 2023).

As a reminder, the Kd is the free concentration of one partner at which half of the binding sites on the other are occupied at equilibrium, for simple one-to-one binding. The low end stands for higher affinity, the high end for lower affinity.

The target of assay [1] is T1, eEF2 (eukaryotic translational elongation factor 2) (Homo sapiens, UniProt P13639). The assay can be described thus: SPR (Biacore T200). The class given is binding. Further details: eEF2 protein immobilized on a CM5 chip. For orientation: Surface plasmon resonance follows binding to a sensor surface in real time, without labels.
Assay [2] concerns the target T1, eEF2 (eukaryotic translational elongation factor 2). The assay can be described thus: ITC (KD […]); also SPR (KD […]), CETSA in KYSE510 and […] T cells, GTPase-Glo inhibition of purified eEF2. Set-up: eEF2-3 × Flag purified from 293 T cells. The class given is binding.

In turn, `O=C(NCCN1CCCC1)c1cc(-c2ccc(CN3CCOCC3)cc2)nc2ccc(F)cc12` [DDD107498] displayed a Kd in assay [1] of 54.1 nM.

Consider `CC(=O)O[C@@H]1C[C@H](O)[C@@]23CO[C@@H](O)[C@]1(C)[C@@H]2C[C@@H](O)[C@]1(C)[C@@H]3C(=O)[C@H](OC(C)=O)[C@@]2(C)[C@H](c3ccoc3)C[C@H]3O[C@]321` [TSN, Toosendanin], for which the Kd in assay [2] was approximately 16.6 nM.
